According to ChEMBL document CHEMBL5143617 (Eur J Med Chem, 2022):
Values after ≈ are worked out from the molar mass of the structure shown.

Tests used:
[1] = molecular target: cAMP and cAMP-inhibited cGMP 3',5'-cyclic phosphodiesterase 10A (Homo sapiens, UniProt Q9Y233); assay: Inhibition of PDE10A (unknown origin) preincubated for 20 mins followed by substrate addition and measured after 1 hr by PEDlight AMP detection reagent based luminescence assay
[2] = Apparent volume of distribution in mouse plasma at 0.625 mg/kg, ip measured up to 480 mins by LC/ESI-MS/MS analysis; format: ADME, organism-based
[3] = molecular target: 5-hydroxytryptamine receptor 7 (Homo sapiens, UniProt P34969); assay: Displacement of [3H]-5-CT from human 5-HT7 receptor expressed in CHO-K1 cells membrane by scintillation counter analysis; format: cell membranes
Sequence of 5-hydroxytryptamine receptor 7 (P34969 whole entry): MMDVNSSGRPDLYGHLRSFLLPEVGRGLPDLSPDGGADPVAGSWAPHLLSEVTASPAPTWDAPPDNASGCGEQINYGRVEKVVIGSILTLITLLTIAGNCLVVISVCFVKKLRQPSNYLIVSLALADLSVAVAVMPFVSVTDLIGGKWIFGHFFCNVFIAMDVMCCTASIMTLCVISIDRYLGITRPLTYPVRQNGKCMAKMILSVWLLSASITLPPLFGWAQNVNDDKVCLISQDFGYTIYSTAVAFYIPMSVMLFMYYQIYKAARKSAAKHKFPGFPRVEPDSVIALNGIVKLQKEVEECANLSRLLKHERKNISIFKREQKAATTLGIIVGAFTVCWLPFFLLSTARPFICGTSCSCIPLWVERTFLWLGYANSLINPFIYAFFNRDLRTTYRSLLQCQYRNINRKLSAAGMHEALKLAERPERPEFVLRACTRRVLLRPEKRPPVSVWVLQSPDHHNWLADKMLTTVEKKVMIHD

[4] = molecular target: 5-hydroxytryptamine receptor 2A (Homo sapiens, UniProt P28223); assay: Binding affinity to 5HT-2A receptor (unknown origin)
Sequence of 5-hydroxytryptamine receptor 2A (P28223 whole entry): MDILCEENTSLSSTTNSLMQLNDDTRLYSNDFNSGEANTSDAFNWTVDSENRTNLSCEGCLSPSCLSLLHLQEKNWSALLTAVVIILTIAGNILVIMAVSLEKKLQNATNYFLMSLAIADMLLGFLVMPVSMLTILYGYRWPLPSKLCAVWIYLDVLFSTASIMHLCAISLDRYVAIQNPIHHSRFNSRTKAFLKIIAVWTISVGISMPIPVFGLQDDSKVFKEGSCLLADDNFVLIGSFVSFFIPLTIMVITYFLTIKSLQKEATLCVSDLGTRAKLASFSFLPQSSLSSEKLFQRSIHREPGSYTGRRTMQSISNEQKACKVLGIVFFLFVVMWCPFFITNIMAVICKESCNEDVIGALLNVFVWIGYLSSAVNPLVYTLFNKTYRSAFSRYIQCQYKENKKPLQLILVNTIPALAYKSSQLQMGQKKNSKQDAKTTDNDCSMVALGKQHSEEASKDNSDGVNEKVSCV

[5] = molecular target: D(2) dopamine receptor (Homo sapiens, UniProt P14416); assay: Binding affinity to dopamine D2 receptor (unknown origin)
Sequence of D(2) dopamine receptor (P14416 whole entry): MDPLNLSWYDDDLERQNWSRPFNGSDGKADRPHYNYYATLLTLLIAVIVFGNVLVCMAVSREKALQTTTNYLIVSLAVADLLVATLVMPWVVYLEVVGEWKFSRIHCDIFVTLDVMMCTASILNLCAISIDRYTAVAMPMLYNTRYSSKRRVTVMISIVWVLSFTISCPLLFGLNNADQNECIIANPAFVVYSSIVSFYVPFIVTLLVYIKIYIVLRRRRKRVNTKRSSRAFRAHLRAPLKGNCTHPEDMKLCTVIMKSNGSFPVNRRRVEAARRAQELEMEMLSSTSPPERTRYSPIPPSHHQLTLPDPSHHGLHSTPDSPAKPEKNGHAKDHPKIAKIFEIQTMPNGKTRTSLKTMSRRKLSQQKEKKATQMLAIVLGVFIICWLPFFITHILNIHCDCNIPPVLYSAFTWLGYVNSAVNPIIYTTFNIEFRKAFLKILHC

[6] = molecular target: T1, Adrenergic receptor alpha-1 (Homo sapiens, UniProt P35348+P25100+P35368); assay: Binding affinity to adrenergic alpha 1 receptor (unknown origin); format: protein assay
T1 sequence (P35348 whole entry): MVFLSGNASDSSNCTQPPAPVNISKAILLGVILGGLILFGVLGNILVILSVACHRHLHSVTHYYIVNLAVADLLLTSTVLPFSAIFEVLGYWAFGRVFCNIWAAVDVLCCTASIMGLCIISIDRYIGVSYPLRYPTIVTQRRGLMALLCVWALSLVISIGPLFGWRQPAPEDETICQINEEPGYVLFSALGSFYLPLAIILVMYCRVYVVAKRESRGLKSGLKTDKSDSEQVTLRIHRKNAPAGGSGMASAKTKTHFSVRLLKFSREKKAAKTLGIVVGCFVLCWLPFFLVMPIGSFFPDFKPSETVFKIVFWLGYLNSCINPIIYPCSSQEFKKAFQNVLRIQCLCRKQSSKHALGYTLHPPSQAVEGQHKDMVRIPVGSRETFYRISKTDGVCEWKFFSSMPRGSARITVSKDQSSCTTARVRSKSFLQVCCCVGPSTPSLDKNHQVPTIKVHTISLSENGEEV
T1 sequence (P25100 whole entry): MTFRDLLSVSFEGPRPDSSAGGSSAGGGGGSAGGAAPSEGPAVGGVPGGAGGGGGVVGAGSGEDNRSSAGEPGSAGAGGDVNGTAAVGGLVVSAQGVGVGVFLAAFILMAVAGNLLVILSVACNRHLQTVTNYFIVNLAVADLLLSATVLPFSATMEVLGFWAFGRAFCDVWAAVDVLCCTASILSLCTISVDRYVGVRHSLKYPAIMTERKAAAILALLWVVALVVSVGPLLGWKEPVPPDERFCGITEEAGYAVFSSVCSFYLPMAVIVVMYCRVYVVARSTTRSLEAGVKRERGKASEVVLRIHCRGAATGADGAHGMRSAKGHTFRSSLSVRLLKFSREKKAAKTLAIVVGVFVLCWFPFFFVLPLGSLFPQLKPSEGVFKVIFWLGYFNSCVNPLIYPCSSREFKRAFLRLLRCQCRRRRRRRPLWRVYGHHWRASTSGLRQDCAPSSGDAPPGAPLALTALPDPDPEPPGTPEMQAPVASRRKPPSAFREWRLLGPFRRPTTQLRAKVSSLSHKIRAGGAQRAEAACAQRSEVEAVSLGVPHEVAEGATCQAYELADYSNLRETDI
T1 sequence (P35368 whole entry): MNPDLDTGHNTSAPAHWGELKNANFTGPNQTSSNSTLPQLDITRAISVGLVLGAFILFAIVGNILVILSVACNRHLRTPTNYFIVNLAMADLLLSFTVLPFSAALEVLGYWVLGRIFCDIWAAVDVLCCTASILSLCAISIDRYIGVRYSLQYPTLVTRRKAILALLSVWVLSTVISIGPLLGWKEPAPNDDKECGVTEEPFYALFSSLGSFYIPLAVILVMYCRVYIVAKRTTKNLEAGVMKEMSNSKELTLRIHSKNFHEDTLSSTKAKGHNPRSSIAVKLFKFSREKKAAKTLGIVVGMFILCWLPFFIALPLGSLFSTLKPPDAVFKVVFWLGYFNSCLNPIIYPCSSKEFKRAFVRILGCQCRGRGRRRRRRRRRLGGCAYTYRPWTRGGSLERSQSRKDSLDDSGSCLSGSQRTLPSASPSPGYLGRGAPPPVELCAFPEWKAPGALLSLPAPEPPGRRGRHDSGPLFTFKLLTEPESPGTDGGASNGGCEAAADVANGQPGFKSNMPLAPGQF

[7] = AUC(0 to t) in mouse plasma at 0.625 mg/kg, ip measured up to 480 mins by LC/ESI-MS/MS analysis; format: ADME, organism-based; design: time < 480 min, dose 0.625 mg/kg, route ip; details: in vivo, 8 h
[8] = Tmax in mouse hippocampus at 0.625 mg/kg, ip by LC/ESI-MS/MS analysis; format: ADME, organism-based
[9] = Cmax in mouse hippocampus at 0.625 mg/kg, ip by LC/ESI-MS/MS analysis; format: ADME, organism-based; design: dose 0.625 mg/kg, route ip
[10] = AUC(0 to t) in mouse hippocampus at 0.625 mg/kg, ip by LC/ESI-MS/MS analysis; format: ADME, organism-based; design: dose 0.625 mg/kg, route ip
[11] = Cmax in mouse striatum at 0.625 mg/kg, ip by LC/ESI-MS/MS analysis; format: ADME, organism-based; design: dose 0.625 mg/kg, route ip
[12] = AUC(0 to t) in mouse striatum at 0.625 mg/kg, ip by LC/ESI-MS/MS analysis; format: ADME, organism-based; design: dose 0.625 mg/kg, route ip
[13] = Tmax in mouse frontal cortex at 0.625 mg/kg, ip by LC/ESI-MS/MS analysis; format: ADME, organism-based
[14] = Cmax in mouse frontal cortex at 0.625 mg/kg, ip by LC/ESI-MS/MS analysis; format: ADME, organism-based; design: dose 0.625 mg/kg, route ip
[15] = AUC(0 to t) in mouse frontal cortex at 0.625 mg/kg, ip by LC/ESI-MS/MS analysis; format: ADME, organism-based; design: dose 0.625 mg/kg, route ip
[16] = Ratio of drug concentration in frontal cortex to plasma in mouse at 0.625 mg/kg, ip by LC/ESI-MS/MS analysis; format: ADME, organism-based; details: frontal cortex and plasma
[17] = Aqueous solubility of compound in simulated gastric fluid by UV absorbance based analysis; format: physicochemical
[18] = Permeability of the compound across apical to basolateral side in human Caco-2 cells at pH 6.5; format: ADME, cell-based; details: Caco-2, pH 6.5, read-out: Papp
[19] = test system: Mus musculus; assay: Antidepressant activity in Swiss albino mouse assessed as reduction in immobility time at 0.625 mg/kg, ip measured for last 4 mins of 6 mins test by forced swim test; format: functional; design: scale not given: the % may be the effect or the level left; details: 0.1 h
[20] = Permeability of the compound across apical to basolateral side in human Caco-2 cells at pH 7.4; format: ADME, cell-based; details: Caco-2, pH 7.4, read-out: Papp
[21] = Plasma protein binding in human by LC-MS/MS analysis; format: ADME, cell-free; details: read-out: PPB (converted)

Sequence of cAMP and cAMP-inhibited cGMP 3',5'-cyclic phosphodiesterase 10A (Q9Y233 whole entry): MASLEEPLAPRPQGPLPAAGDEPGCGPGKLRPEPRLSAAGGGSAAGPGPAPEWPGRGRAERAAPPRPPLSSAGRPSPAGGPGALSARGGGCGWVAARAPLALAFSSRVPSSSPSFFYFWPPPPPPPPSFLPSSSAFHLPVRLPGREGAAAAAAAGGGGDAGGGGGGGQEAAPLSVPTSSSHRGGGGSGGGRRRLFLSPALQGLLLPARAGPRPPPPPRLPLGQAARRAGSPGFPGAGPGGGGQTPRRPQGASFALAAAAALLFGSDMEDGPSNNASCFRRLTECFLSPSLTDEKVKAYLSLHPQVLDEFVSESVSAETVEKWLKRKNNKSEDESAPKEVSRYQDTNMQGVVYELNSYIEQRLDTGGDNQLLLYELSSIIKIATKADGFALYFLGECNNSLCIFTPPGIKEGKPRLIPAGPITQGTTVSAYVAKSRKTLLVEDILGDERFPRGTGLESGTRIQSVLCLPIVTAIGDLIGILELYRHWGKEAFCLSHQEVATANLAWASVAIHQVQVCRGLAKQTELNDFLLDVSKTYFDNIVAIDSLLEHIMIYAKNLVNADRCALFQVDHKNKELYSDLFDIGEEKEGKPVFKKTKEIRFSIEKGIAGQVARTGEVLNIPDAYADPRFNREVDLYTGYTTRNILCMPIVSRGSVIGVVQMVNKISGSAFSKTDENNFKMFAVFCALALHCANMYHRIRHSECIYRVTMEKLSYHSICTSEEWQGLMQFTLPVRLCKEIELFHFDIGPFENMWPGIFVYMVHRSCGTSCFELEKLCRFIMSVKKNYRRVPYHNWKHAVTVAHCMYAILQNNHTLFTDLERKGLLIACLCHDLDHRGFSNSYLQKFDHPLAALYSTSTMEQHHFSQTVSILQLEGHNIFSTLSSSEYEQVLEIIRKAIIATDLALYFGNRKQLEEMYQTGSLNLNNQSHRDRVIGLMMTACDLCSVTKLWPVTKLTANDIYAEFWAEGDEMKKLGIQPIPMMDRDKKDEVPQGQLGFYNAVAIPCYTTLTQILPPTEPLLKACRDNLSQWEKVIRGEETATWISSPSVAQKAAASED

IC50 [1]: 1.7 µM | Vd/F [2]: 0.272 L/kg | Ki [3]: 0.138 µM | Ki [4]: > 1 µM | Ki [5]: > 1 µM | pKi [6]: 6.11 | AUCt [7]: 730 ng·min/mL | Tmax [8]: 0.5 h | Cmax [9]: 0.33 µg/mL | AUC(0-t) [10]: 1.04 µg·h/mL | Cmax [11]: 0.317 µg/mL | AUC(0-t) [12]: 1.06 µg·h/mL | Tmax [13]: 8 h | Cmax [14]: 0.327 µg/mL | AUC(0-t) [15]: 1.82 µg·h/mL | Kp [16]: 149 | solubility [17]: 196 µM (≈ 91.9 µg/mL) | Papp A→B [18]: 2.6 nm/s | Papp A→B [20]: 0.5 nm/s | fraction unbound [21]: 0.018
Structure (SMILES): COc1cc2ncnc(N3CCC(CN4CCN(c5ccc(Cl)cc5)CC4)C3)c2cc1OC (stereo unspecified)
Activity [19]: 50%
